Ends that are not written are not given here.
Columns and labels:
[1] = test system: IL-1 beta; test: Genetic analysis via real-time PCR in vitro, cytokine expression in cultured cells; format: cell-based, mouse; conditions: for cytokine IL-1 beta in the spleen: peptide treatment 24 hours, FIG. 2D; for cytokine IL-1 beta in the lymph node: FIG. 2H
[2] = test system: IL-17; test: as above; format: cell-based, mouse; conditions: for cytokine IL-17 in the lymph node: FIG. 2E; for cytokine IL-17 in the spleen: peptide treatment 24 hours, FIG. 2A
Procedure: (§1) While culturing spleen cells isolated from the spleen of 4-week-old male ICR mice weighing 25 g, various types of peptides having lipidized at terminus of the peptides were treated to cells, and changes in cytokine expression were observed via real-time PCR. Spleen cell isolation was performed by cutting out the spleen from mice, placing the spleen on a cell filter, crushing the spleen on a Petri dish through the cell filter using the plunger tip of a syringe, rinsing the cell filter with PBS, and transferring the suspended cells to 15 mL conical tube. Cells were centrifuged at 4° C. and 800×g for 5 minutes. Subsequently, the supernatant was discarded, and the pellets were resuspended in 1 mL of ACK buffer (ammonium-chloride-potassium lysing buffer). After leaving at room temperature for 5 to 10 minutes, […] of PBS at 4° C. was added, and the cells were centrifuged again at 4° C. and 800×g for 5 minutes. The supernatant was discarded again, the pellets were resuspended in 5 mL of culture, and 2×10^6 cells/mL were cultured in DMEM medium. Before culturing spleen cells in an incubator, 1 μg/mL anti-CD3 Ab was coated on the bottom of a culture container, after 24 hours, culture was performed for 3 days in DMEM medium including 1 μg of anti-CD28 Ab, 20 ng of IL-6, 5 ng of TGF beta, and 20 ng of IL-23 per 1 mL of culture medium, and then the peptides were treated, followed by culture for another 24 hours.

[3] = test system: TNF-alpha; test: as above; format: cell-based, mouse; conditions: for cytokine TNF-alpha in the spleen: peptide treatment 24 hours, FIG. 2C; for cytokine TNF-alpha in the lymph node: FIG. 2G
Procedure: as §1

[4] = test system: arthritis model mice (collagen induced arthritis, CIA); test: Ankle thickness in collagen induced arthritis (CIA) mice; format: in vivo, mouse; conditions: at day 30, compared to arthritis mice (control) without receiving peptides; FIGS. 9A-9B
Procedure: (§2) Collagen was mixed with an adjuvant and injected subcutaneously into the tail twice (Day 1 and Day 11) to prepare arthritis model mice. The adjuvant is a mixture of 17 μL of high-concentration paraffin oil (Fisher, cat. no. 0122-1) and 68 μg (17 μL) of complete Freund adjuvant (CFA; Sigma-Aldrich, cat. no. F5881), which was used by mixing with 34 μg (17 μL) of bovine type II collagen (MD bioproducts cat. no. 804001-Sol). From the day after the second collagen injection (day 12), 1 μg (100 μL) of peptide was administered intramuscularly to the hind legs 10 times (once every 2 days), and mouse peripheral blood cells were isolated to analyze the frequency of Ly6G+ cells via flow cytometry. Peripheral blood cells were isolated from mouse hearts, red blood cells were lysed in ACK buffer (ammonium-chloride-potassium lysing buffer), and then centrifugation was performed to collect only blood cells to be used for antibody staining for the analysis with the flow cytometer. Using Ly6G+ as a neutrophil marker, whether the peptide inhibits a frequency of inflammation-induced neutrophil cells in an arthritis model was determined. Methotrexate (MTX) was used as a control drug.
Since the thickness of the ankle increases due to edema caused by arthritis, the ankle thickness was measured to determine whether peptide administration may relieve edema caused by inflammation. The ankle thickness was measured with a digital caliper at the thickest part of the ankle.

[5] = test system: Ly6G+ (neutrophil) cells; test: Frequency of Ly6G+ (neutrophil) cells in peripheral blood of collagen induced arthritis (CIA) mice; format: in vivo, mouse; conditions: 1 μg intramuscularly 10 times (once every 2 days), FIG. 8
Procedure: as §2

[6] = test system: mice with Behçet's disease; test: Skin symptom improvement in mice with Behçet's disease; format: in vivo; conditions: external agent on skin, 1 μg/mouse once a day for 10 days; FIG. 6
Procedure: After applying the peptide-including external agent used in the Experimental Example 5 to the skin of mice with Behçet's disease, changes in the symptom improvement were checked. Administration was performed by 1 μg/mouse once a day for 10 days.

[7] = test system: ROR-gammaT gene; test: Genetic analysis via real-time PCR in vitro, gene expression in cultured cells; format: cell-based, mouse; conditions: for expression of ROR-gammaT gene in the lymph node: FIG. 2F
Procedure: as §1

Substance	cytokine IL-1 beta in the spleen [1]	cytokine IL-17 in the lymph node [2]	cytokine IL-17 in the spleen [2]	cytokine TNF-alpha in the spleen [3]	cytokine IL-1 beta in the lymph node [1]	thickness of the ankle [4]	frequency of Ly6G+ cells [5]	skin symptom improvement [6]	expression of ROR-gammaT gene in the lymph node [7]	cytokine TNF-alpha in the lymph node [3]	expression of ROR-gammaT gene in the spleen ([7]; spleen, peptide treatment 24 hours, FIG. 2B)
P1M: P1 peptide (SEQ ID NO: 1) with myristoylation, component of P124-M (LICPEKYCNKVHT; cysteine pairing not given here; also: myristoylation) [Peptide P1M]	reduced	–	–	–	–	–	–	–	–	–	–
LICPEKYCNKVHTCRNGENICF (SEQ ID NO: 4) (E1) [Peptide E1]	reduced	reduced	reduced	reduced	reduced	significantly reduced	decreased to a statistically significant level	the symptom almost disappeared after 10 days	reduced	–	–
P2M: P2 peptide (SEQ ID NO: 2) with myristoylation, component of P124-M (YCNKVHTCRNG; cysteine pairing not given here; also: myristoylation) [Peptide P2M]	–	reduced	reduced	reduced	–	–	–	–	–	–	–
P4M: P4 peptide (SEQ ID NO: 3) with myristoylation, component of P124-M (HTCRNGENICF; cysteine pairing not given here; also: myristoylation) [Peptide P4M]	reduced	reduced	–	reduced	–	–	–	–	–	–	–
LTCLICPEKYCNKVHTCRNGENICF (SEQ ID NO: 5) (E2) [Peptide E2]	reduced	reduced	reduced	reduced	–	significantly reduced	–	improved the skin erythema	reduced	reduced	–
TCPEAKPREIVECCSTDKCNH (SEQ ID NO: 6) (E3) [Peptide E3]	reduced	reduced	reduced	reduced	reduced	significantly reduced	–	–	reduced	reduced	reduced
GCAATCPEAKPREIVECCSTDKCNH (SEQ ID NO: 7) (E4) [Peptide E4]	–	–	–	–	–	–	–	almost disappeared after 10 days, and the wound healed	–	–	–

From patent publication US12698308B2, “Peptide for preventing or treating inflammatory diseases” (AJOU UNIVERSITY INDUSTRY-ACADEMIC COOPERATION FOUNDATION, priority 2021, dated 2026)
